Results on eight molecules are retold here after patent US12337000B2, “Therapeutic modulators of the reverse mode of ATP synthase” (priority 2017, dated 2025).

As usually defined, the LD50 is the dose at which mortality reaches 50%. As a reminder, the inhibition is the drop in the measured response relative to a control, in per cent. In general, GI50 refers to the concentration at which growth is held to half of that of the control. Broadly, the IC50 is the midpoint of a concentration-inhibition curve.

“Also recorded” adds a separate entry of the source. Read-outs that look alike come from different tables or passages of the source. Bounds are passed on as bounds.

Series [1] concerns 59 cancer cell lines (NCI-60). Description: NCI-60 one-dose in vitro assay. The series is classed as cell-based, human. Particulars: for anti-cancer activity (in words) / inhibition at 10 µM: 10 μM; for inhibition at 10 µM / inhibition at 100 µM: Homo sapiens; for inhibition at 10 µM: 48 hours, read-out: mean cancer growth inhibition, across all 59 cancer cell lines. An excerpt: FIGS. 1, 2, 3, 4, 5, 6, 7, 8 show results from the NCI-60 one-dose in vitro assay at the Developmental Therapeutics Program (DTP), at the National Cancer Institute (NCI, Bethesda, MD, USA). Its protocol is well known to those of the art, and it tests the effect, if any, of a test compound on the growth/survivability of a cancer cell line as compared to the no compound control. […] However, a constant is that there is always representative cell lines from leukemia, melanoma and cancers of the lung, colon, brain, ovary, breast, prostate and kidney. In a one-dose NCI compound test report, NCI report a number for each cell line, which they call “Growth Percent”, which is its growth relative to the no-compound control, and relative to the time zero number of cells. This reported parameter allows detection of both growth inhibition (values between 0 and 100) and lethality (values less than 0). For example, an NCI “Growth Percent” value of 100 means no growth inhibition. Value of 40 means 60% growth inhibition. Value of 0 means no net growth over the course of the experiment. Value of −40 means 60% lethality. Value of −100 means all cells are dead. I don't present NCI one-dose data in this original format. Instead, if the NCI “Growth Percent” value for a cell is positive, it is manipulated: [100 minus this original NCI-60 “Growth Percent” data point], to yield the percentage “Growth Inhibition”. If the original NCI “Growth Percent” value for a cell is negative, it is made positive to be the percentage of original cancer cells (at time zero) killed: “Percentage Killed” {and in these cases, of course, all growth has been inhibited, so percentage “Growth Inhibition” is then specified to be 100% for this cancer cell line}. In my one-dose figures, “Growth Inhibition” (0-100%) is presented on the x-axis and, if applicable, “Percentage Killed” (0-100%) further along on the x-axis. The latter is applicable when there is not just cancer growth inhibition but a reduction in the number of cancer cells from the start time i.e. when the compound is not merely slowing cancer growth, but is actively reducing the number of cancer cells from the starting number. In cases where there is only growth inhibition, only “Growth inhibition” is presented on the x-axis.
NCI-60 tests are performed at a controlled temperature of 37° C..
To perform the anti-cancer testing reported: BMS-199264 hydrochloride was purchased from Sigma-Aldrich. BTB06584 was purchased from AdooQ Bioscience, Irvine, CA, USA. Compounds 19a (separated into 6a and 6b stereoisomers) and 31 were synthesized by reaction schemes disclosed herein. Almitrine dimesylate was purchased from Ak Scientific, Palo Alto, CA, USA.

Series [2] in a line: Human pharmacokinetics of oral almitrine dimesylate. The series is classed as in vivo. Particulars: human, plasma; single 200 mg oral dose, humans [121]; read-out: mean cmax plasma concentration.
The conditions of series [3]: cited from earlier work.
The conditions of series [4]: mice, intraperitoneal injection (IP); cited from earlier work.
For series [5] the following is noted: 1.9 g/kg intraperitoneal, 24.5 to 25° C. ambient temperature [100]; cited from earlier work.
Series [6] concerns the target forward mode of ATP synthase (Homo sapiens, UniProt P06576+P25705+P48047). Particulars: [P4]; cited from earlier work.
Series [7] deals with reverse mode of ATP synthase (Homo sapiens, UniProt P06576+P25705+P48047). Particulars: [P4]; cited from earlier work.
In series [8] the test system is 59 cancer cell lines (NCI-60). Particulars: 10 μM, NCI-60 one-dose, NSC: 760347 in [16], cited from earlier work.
For series [9], the system named is 59 different cancer cell lines (NCI-60). Description: NCI-60 five-dose in vitro assay. The series is classed as cell-based. Particulars: Homo sapiens, read-out: mean GI50 of all 59 cell lines. An excerpt: Results are from the NCI-60 five-dose in vitro assay at the Developmental Therapeutics Program (DTP), at the National Cancer Institute (NCI, Bethesda, MD, USA). […] These graphs are as outputted by the NCI but changed from colour to black and white. On the y-axis of each is the aforementioned “Growth Percent” parameter used by NCI, which is growth relative to the no-compound control, and relative to the time zero number of cells.

Series [10] in a line: In vivo mouse study of 6a and 6b, rectal temperature and survival at 22° C. room temperature. Further details: species or system Mus Musculus C57BL/6. Particulars: for effect on rectal temperature (in words): in vivo, iv. As to the method: FIG. 15. In vivo study of compounds 6a and 6b, conducted at 22° C. room temperature. METHODOLOGY: 4 mice were used and in the presented table “Day” refers to the number of days since the 1st drug/vehicle dose on Day 1. Some experimental details: intravenous (IV) administration (tail vein), dosing volume=10 μl/g, solution (not suspension), sterilised (0.22 μm filter) vortexed vehicle=12.5% solutol, 12.5% ethanol, 75% water, IV solutions freshly prepared before injection except on days 22 and 39 when solutions prepared on previous dosing days were used (sub-optimal), Female Mus Musculus C57BL/6 strain, 6-8 weeks old at study start, mice sourced from Shanghai Lingchang Bio-Technology Co. Ltd, mice were observed/quarantined for a few days after arrival and before dosing, ad libitum Co^60 irradiation sterilized dry granule food & reverse osmosis autoclaved water, corn cob bedding, polysulfone individually ventilated cage (IVC, containing up to 5 animals): 325 mm×210 mm×180 mm, 12 hour light/dark cycle, 40-70% humidity, 20-26° C. room temperature, StudyDirector™ software (Studylog Systems, Inc. CA, USA) used to allocate/randomize control/treatment groups, animals marked by ear coding (notch), care and use of animals in accordance with the regulations of the Association for Assessment and Accreditation of Laboratory Animal Care (AAALAC), when recording rectal temperature: care was taken to ensure constant depth of probe insertion across different recordings, time was afforded for rectal probe temperature to equilibrate with rectal temperature, and time was afforded between recordings for probe temperature to reset.

Series [11] is described as follows: Enantiomeric excess (ee) stability experiments. The series is classed as physicochemical. Particulars: FIG. 16. An excerpt: FIG. 16. The enantiomeric excess (ee) of 6a and 6b is […] in presented ee stability experiments. […] This ee instability in biological media is an unexpected result. This finding is componentry to the invention of this disclosure, as are any modifications to the structure of 6a or 6b to slow their ee erosion due to epimerization/racemization. The ee instability is unexpected because it runs contrary to theory. The 2nd order rate constant (kgb) for general-base catalysed racemization can be predicted for 6a and 6b by theory from (and its supplementary information, all incorporated by reference). Joined to the stereogenic carbon of 6a and 6b there is a phenyl group, alkyl and a guanidine group: ΣΔΔG(R1,R2,R3)=[…]=−36.2 kcal/mol. The value for the guanidine group (19.1) is not from but from one of its authors, Dr. Andrew Leach, by personal communication, who sourced it by quantum mechanical calculation with the Gaussian 03 software package. The cross-conjugation correction was not applied in this case because Dr. Leach wrote “I would not expect guanidine to be a conjugating group”. log(kgb)=−0.11*ΣΔΔG(R1,R2,R3)−9.81, ∴Kgb=0.00000148593 M^−1s^−1. This is not particularly fast. Racemization might occur faster for 6a and 6b in cells than predicted by theory because their high lipophibicity concentrates them in biological membranes. […]

A further series concerns the target T1, F1F0 ATP hydrolase (Bos taurus, UniProt P00829+P19483).
T1 construct: from tissue; host or cells: sub-mitochondrial particles (SMPs)
Particulars: cited from earlier work; for IC50: [5-6], read-out: IC50 reverse mode of ATP synthase.

Series [12] has as its system 59 different cancer cell lines (NCI-60). Particulars: NCI-60 five-dose, from Table 1 of [30]; cited from earlier work.
A further series has as its target T2, F1F0 ATP synthesis (Bos taurus, UniProt P00829+P19483).
T2 construct: are from sub-mitochondrial (SMP) studies in [5-8]; from tissue; host or cells: sub-mitochondrial particles (SMPs)
Particulars: SMP assays, [5-8]; cited from earlier work.

A further series relates to ex vivo rat heart. Particulars: 10 μM [11]; cited from earlier work.
[13] abbreviates: read-out: median cancer growth inhibition.

Regarding `C=CCNc1nc(NCC=C)nc(N2CCN(C(c3ccc(F)cc3)c3ccc(F)cc3)CC2)n1.CS(=O)(=O)O` [almitrine dimesylate, 6-[4-[bis(4-fluorophenyl)methyl]piperazin-1-yl]-2-N,4-N-bis(prop-2-enyl)-1,3,5-triazine-2,4-diamine methanesulfonic acid], the “anti-cancer activity (in words)” value in series [1] was “Anti-cancer activity”; in [1] (listed as almitrine dismesylate) it was “greater anti-cancer activity than carboplatin”. Also, in series [2], the Cmax was 600 nM. Further, the “plasma [almitrine]” value in series [3] (24 hours after 200 mg oral dose [121]) is approximately 50 ng/mL. Also, the oral bioavailability in series [3] (humans [121]) is reported as 70%. Besides, the “mean cmax plasma concentration” value in [3] (single 150 mg oral dose, humans [123]) was 379 ng/mL; in series [3] (single 200 mg oral dose, humans [121]), 286 ng/mL. Moreover, the LD50 in series [4] is 370 mg/kg.

Turning to `CCO` [ethanol], the “reduction of body temperature” value in [5] was 1.6 °C.

In the case of `CN1C(=O)C(Cc2ccc3ccccc3c2)N=C(c2ccc(O)cc2)c2cc(Cl)ccc21` (stereo not shown) [Bz-423], the results for the EC50 in [6] and in series [7] were 5.5 µM and 8.9 µM, respectively.

In the case of `CCN1CC(CCN2CCOCC2)C(c2ccccc2)(c2ccccc2)C1=O` (stereo not shown) [Doxapram], the “median % cancer growth inhibition” value in series [8] is listed as −2.3%. In series [8] (negative = growth promotion), the “mean % cancer growth inhibition” value is recorded as −3.7%.

Regarding `N#Cc1cccc(C(=O)/N=C(\Nc2ccc(Cl)cc2)N[C@@H](Cn2ccnc2)c2ccc(Cl)cc2Cl)c1` [Compound 6a], the inhibition at 10 µM in series [1] was determined as 57%. Besides, in [1] (setting [13]), the inhibition at 100 µM is more than 79%. The GI50 in series [9] was 666 nM. The LD50 in series [10] (female, C57BL/6, in vivo, mouse, IV) is more than 40 mg/kg. Besides, the “effect on rectal temperature (in words)” value in series [10] (mouse) is on record as “does not”. In [11], the “enantiomeric excess (ee) stability” value was “stable”. Moreover, the EC50 on F1F0 ATP hydrolase (SMP studies in [5-8], read-out: EC50 F1F0 ATP hydrolysis / hydrolase) is more than 100 µM. Moreover, the IC50 at F1F0 ATP hydrolase is more than 100000 nM.

As for `N#Cc1cccc(C(=O)/N=C(\Nc2ccc(Cl)cc2)N[C@H](Cn2ccnc2)c2ccc(Cl)cc2Cl)c1` [Compound 6b], in [1], the inhibition at 10 µM stood at 66%. The inhibition at 100 µM in series [1] (setting [13]) is more than 79%. The concentration for 50% growth inhibition (GI50) in series [9] amounted to 446 nM. In addition, the “time to death after IV injection” value in [10] (20 mg/kg IV) was approximately 210 min. Further, in series [10] (40 mg/kg IV, found dead the next day), the “survival time after IV injection” value is more than 6 h. Further, in series [10] (mouse), the “effect on rectal temperature (in words)” value is given as “potently reduces rectal temperature”. Further, the “enantiomeric excess (ee) stability” value in series [11] was “stable”. For the same molecule, at F1F0 ATP hydrolase, the IC50 is 18 nM.

For the molecule `N.N.[Cl][Pt][Cl]` [cisplatin], the concentration for 50% growth inhibition (GI50) in series [12] was 1400 nM.

On to `CC1(C)Oc2ccc(S(=O)(=O)N3CCCCC3)cc2[C@@H](N(Cc2ncc[nH]2)c2ccc(Cl)cc2)[C@@H]1O` [BMS-199264], for which, in [1] (read-out: Mean % cancer growth inhibition), the inhibition at 100 µM was more than 100%. Also, the 50% growth inhibitory concentration (GI50) in series [9] stood at 3900 nM. In addition, the EC50 on F1F0 ATP synthesis was 18 µM. In addition, the “harm to normal cells (ex vivo rat heart)” value in the series with ex vivo rat heart is reported as “doesn't harm; also recorded: does not harm”.
